ChEMBL document CHEMBL3885881, “DrugMatrix”

Organism: Rattus norvegicus
Test: DrugMatrix - Regimen: Daily Repeat
Type: toxicity, organism-based, Sprague-Dawley
Design: regimen Daily Repeat, gender Male, age 6-8 weeks
Details: in vivo, ip, route intraperitoneal, vehicle 100 % SALINE; for ABSOLUTE BASOPHIL / ABSOLUTE EOSINOPHIL / ABSOLUTE LYMPHOCYTE / ABSOLUTE MONOCYTE / ABSOLUTE SEGMENTED NEUTROPHIL / BASOPHIL / EOSINOPHIL / ERYTHROCYTE COUNT / HEMATOCRIT / HEMOGLOBIN / LEUKOCYTE COUNT / LYMPHOCYTE / MEAN CORPUSCULAR HEMOGLOBIN / MEAN CORPUSCULAR HEMOGLOBIN CONCENTRATION / MEAN CORPUSCULAR VOLUME / MONOCYTE / NEUTROPHIL / PLATELET COUNT: tissue Blood
[1] = 0 mg/kg, 120 h, dose level Control, time 5 day
[2] = 0 mg/kg, 120 h, tissue Plasma, dose level Control, time 5 day
[3] = 0 mg/kg, […], dose level Control, time 14 day
[4] = 0 mg/kg, […], dose level Control, time 28 day
[5] = 0 mg/kg, […], tissue Plasma, dose level Control, time 14 day
[6] = 0 mg/kg, […], tissue Plasma, dose level Control, time 28 day
[7] = 2 mg/kg, 120 h, dose level High, time 5 day
[8] = 2 mg/kg, 120 h, tissue Plasma, dose level High, time 5 day
[9] = 2 mg/kg, […], dose level High, time 14 day
[10] = 2 mg/kg, […], dose level High, time 28 day

## CADMIUM DICHLORIDE
[1]
  ABSOLUTE BASOPHIL: 32 cells/µL
  ABSOLUTE EOSINOPHIL: 110 cells/µL
  ABSOLUTE LYMPHOCYTE: 6630 cells/µL
  ABSOLUTE MONOCYTE: 140 cells/µL
  ABSOLUTE SEGMENTED NEUTROPHIL: 1170 cells/µL
  BASOPHIL: 0.38%
  EOSINOPHIL: 1.28%
  ERYTHROCYTE COUNT: 7.45 x10E6/uL
  HEMATOCRIT: 45.74%
  HEMOGLOBIN: 14.72 G/DL
  LEUKOCYTE COUNT: 8.11 x10E3/uL
  LYMPHOCYTE: 81.3%
  MEAN CORPUSCULAR HEMOGLOBIN: 19.76 pg
  MEAN CORPUSCULAR HEMOGLOBIN CONCENTRATION: 32.16 G/DL
  MEAN CORPUSCULAR VOLUME: 61.38 fL
  MONOCYTE: 1.76%
  NEUTROPHIL: 14.9%
  PLATELET COUNT: 1322.4 x10E3/uL
[2]
  ALANINE AMINOTRANSFERASE: 25.8 u/L
  ALBUMIN: 3.64 G/DL
  ASPARTATE AMINOTRANSFERASE: 81.4 u/L
  BLOOD UREA NITROGEN: 14.4 mg/dL
  CHOLESTEROL: 69.2 mg/dL
  CREATINE PHOSPHOKINASE: 303.2 u/L
  CREATININE: 0.56 mg/dL
  GLUCOSE: 125.4 mg/dL
  LACTATE DEHYDROGENASE: 105.4 u/L
  LIPASE: 22.4 u/L
  POTASSIUM: 5.52 MEQ/L
  SODIUM: 147 MEQ/L
  TOTAL BILIRUBIN: 0.2 mg/dL
  TOTAL PROTEIN: 6.1 G/DL
  URIC ACID: 1.06 mg/dL
[3]
  ABSOLUTE BASOPHIL: 130 cells/µL
  ABSOLUTE EOSINOPHIL: 140 cells/µL
  ABSOLUTE LYMPHOCYTE: 13500 cells/µL
  ABSOLUTE MONOCYTE: 400 cells/µL
  ABSOLUTE SEGMENTED NEUTROPHIL: 2330 cells/µL
  BASOPHIL: 0.72%
  EOSINOPHIL: 0.86%
  ERYTHROCYTE COUNT: 7.74 x10E6/uL
  HEMATOCRIT: 45.98%
  LEUKOCYTE COUNT: 16.61 x10E3/uL
  LYMPHOCYTE: 81.34%
  MEAN CORPUSCULAR HEMOGLOBIN: 18 pg
  MEAN CORPUSCULAR HEMOGLOBIN CONCENTRATION: 30.22 G/DL
  MEAN CORPUSCULAR VOLUME: 59.4 fL
  MONOCYTE: 2.46%
  NEUTROPHIL: 14.14%
  PLATELET COUNT: 1445.5 x10E3/uL
[4]
  ABSOLUTE BASOPHIL: 91 cells/µL
  ABSOLUTE EOSINOPHIL: 110 cells/µL
  ABSOLUTE LYMPHOCYTE: 9910 cells/µL
  ABSOLUTE MONOCYTE: 210 cells/µL
  ABSOLUTE SEGMENTED NEUTROPHIL: 1560 cells/µL
  BASOPHIL: 0.77%
  EOSINOPHIL: 0.92%
  ERYTHROCYTE COUNT: 8.21 x10E6/uL
  HEMATOCRIT: 47.53%
  HEMOGLOBIN: 15.65 G/DL
  LEUKOCYTE COUNT: 11.91 x10E3/uL
  LYMPHOCYTE: 83.34%
  MEAN CORPUSCULAR HEMOGLOBIN: 19.07 pg
  MEAN CORPUSCULAR HEMOGLOBIN CONCENTRATION: 32.93 G/DL
  MEAN CORPUSCULAR VOLUME: 57.9 fL
  MONOCYTE: 1.68%
  NEUTROPHIL: 12.97%
  PLATELET COUNT: 1323.8 x10E3/uL
[5]
  ALANINE AMINOTRANSFERASE: 31.6 u/L
  ALBUMIN: 3.66 G/DL
  ALKALINE PHOSPHATASE: 228.6 u/L
  ASPARTATE AMINOTRANSFERASE: 79.6 u/L
  BLOOD UREA NITROGEN: 11.2 mg/dL
  CHLORIDE: 107 MEQ/L
  CHOLESTEROL: 57 mg/dL
  CREATININE: 0.5 mg/dL
  GLUCOSE: 124.4 mg/dL
  LACTATE DEHYDROGENASE: 106.4 u/L
  LIPASE: 24.4 u/L
  PHOSPHORUS: 10.52 mg/dL
  POTASSIUM: 6.34 MEQ/L
  SODIUM: 149.2 MEQ/L
  TOTAL BILIRUBIN: 0.2 mg/dL
  TOTAL PROTEIN: 6.48 G/DL
  URIC ACID: 0.94 mg/dL
[6]
  ALANINE AMINOTRANSFERASE: 30 u/L
  ALBUMIN: 3.71 G/DL
  ALKALINE PHOSPHATASE: 186.8 u/L
  ASPARTATE AMINOTRANSFERASE: 78.2 u/L
  BLOOD UREA NITROGEN: 14.2 mg/dL
  CHOLESTEROL: 44.9 mg/dL
  CREATINE PHOSPHOKINASE: 334.3 u/L
  CREATININE: 0.6 mg/dL
  GLUCOSE: 147.2 mg/dL
  LACTATE DEHYDROGENASE: 123.1 u/L
  LIPASE: 9.6 u/L
  PHOSPHORUS: 10.01 mg/dL
  POTASSIUM: 6.57 MEQ/L
  SODIUM: 149.5 MEQ/L
  TOTAL BILIRUBIN: 0.21 mg/dL
  TOTAL PROTEIN: 6.66 G/DL
  URIC ACID: 1.26 mg/dL
[7]
  ABSOLUTE BASOPHIL: 82 cells/µL
  ABSOLUTE EOSINOPHIL: 170 cells/µL
  ABSOLUTE LYMPHOCYTE: 6790 cells/µL
  ABSOLUTE MONOCYTE: 750 cells/µL
  ABSOLUTE SEGMENTED NEUTROPHIL: 6.49 CELLS/uL
  BASOPHIL: 0.52%
  EOSINOPHIL: 1.36%
  ERYTHROCYTE COUNT: 7.45 x10E6/uL
  HEMATOCRIT: 43.86%
  HEMOGLOBIN: 14.46 G/DL
  LEUKOCYTE COUNT: 14.43 x10E3/uL
  LYMPHOCYTE: 52.2%
  MEAN CORPUSCULAR HEMOGLOBIN: 19.4 pg
  MEAN CORPUSCULAR HEMOGLOBIN CONCENTRATION: 32.92 G/DL
  MEAN CORPUSCULAR VOLUME: 59.02 fL
  MONOCYTE: 5.12%
  NEUTROPHIL: 39.98%
  PLATELET COUNT: 1991.4 x10E3/uL
[8]
  ALANINE AMINOTRANSFERASE: 32 u/L
  ALBUMIN: 3.14 G/DL
  ALKALINE PHOSPHATASE: 100.2 u/L
  ASPARTATE AMINOTRANSFERASE: 134 u/L
  BLOOD UREA NITROGEN: 16.8 mg/dL
  CHOLESTEROL: 54.8 mg/dL
  CREATINE PHOSPHOKINASE: 243.4 u/L
  CREATININE: 0.44 mg/dL
  GLUCOSE: 120.4 mg/dL
  LACTATE DEHYDROGENASE: 161.2 u/L
  LIPASE: 76.6 u/L
  PHOSPHORUS: 11.2 mg/dL
  POTASSIUM: 6.38 MEQ/L
  SODIUM: 146 MEQ/L
  TOTAL BILIRUBIN: 0.2 mg/dL
  TOTAL PROTEIN: 5.32 G/DL
  URIC ACID: 1.7 mg/dL
[9]
  ABSOLUTE BASOPHIL: 180 cells/µL
  ABSOLUTE EOSINOPHIL: 86 cells/µL
  ABSOLUTE LYMPHOCYTE: 8270 cells/µL
  ABSOLUTE MONOCYTE: 890 cells/µL
  ABSOLUTE SEGMENTED NEUTROPHIL: 6.16 CELLS/uL
  BASOPHIL: 1.22%
  EOSINOPHIL: 0.6%
  ERYTHROCYTE COUNT: 7.03 x10E6/uL
  HEMATOCRIT: 40.98%
  HEMOGLOBIN: 13.48 G/DL
  LEUKOCYTE COUNT: 15.72 x10E3/uL
  LYMPHOCYTE: 52.14%
  MEAN CORPUSCULAR HEMOGLOBIN: 19.2 pg
  MEAN CORPUSCULAR HEMOGLOBIN CONCENTRATION: 32.92 G/DL
  MEAN CORPUSCULAR VOLUME: 58.34 fL
  MONOCYTE: 5.4%
  NEUTROPHIL: 39.7%
  PLATELET COUNT: 2275.2 x10E3/uL
[10]
  ABSOLUTE BASOPHIL: 270 cells/µL
  ABSOLUTE EOSINOPHIL: 150 cells/µL
  ABSOLUTE LYMPHOCYTE: 12500 cells/µL
  ABSOLUTE MONOCYTE: 620 cells/µL
  ABSOLUTE SEGMENTED NEUTROPHIL: 4220 cells/µL
  BASOPHIL: 1.34%
  EOSINOPHIL: 0.93%
  ERYTHROCYTE COUNT: 7.42 x10E6/uL
  HEMATOCRIT: 44.63%
  LEUKOCYTE COUNT: 17.89 x10E3/uL
  LYMPHOCYTE: 68.87%
  MEAN CORPUSCULAR HEMOGLOBIN: 18.83 pg
  MEAN CORPUSCULAR HEMOGLOBIN CONCENTRATION: 31.21 G/DL
  MONOCYTE: 3.41%
